outcome, EC50 and IC50 data for 69 compounds are collected here from PubChem BioAssay AID179 (DTP/NCI, 2004).

The test system of the test is CEM cells HIV-1 protection, formazan growth assay. The experiment in a line: NCI AIDS Antiviral Assay. The following applies: for IC50: measured here: growth of uninfected CEM cells. The protocol: The ability of compounds to protect human CEM cells from HIV-1 infection is measured as a screen for new compounds capable of inhibiting the HIV virus. Five concentrations of drug were tested on uninfected and infected cells and cell growth was measured using a soluble formazan assay. […] Compounds that provided at least 50% protection were retested. Compounds that provided at least 50% protection on retest were listed as moderately active. Compounds that reproducibly provided 100% protection were listed as confirmed active. […] Note that the inability to provide protection could be due to toxicity.

Active and inactive are the calls of the source.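 The calls were made as follows: active = compounds giving half or more protection of infected cells from virus-caused growth loss, again on retest; inactive = the rest.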 Where a SMILES comes first, the peptide text is derived from it.

A word on the EC50: it is the midpoint of the concentration-response curve. The term IC50 denotes the concentration at which inhibition is half-maximal. Read a low IC50 as greater potency.

For the compound `N#CC(C#N)SCc1ccccc1`, the outcome was inactive. Regarding `CCOP(=O)(OCC)OC1CC(n2cnc3c(N(CC)CC)ncnc32)OC1CO[Si](C)(C)C(C)(C)C` (stereo unspecified), the EC50 is > 200 µM and the IC50 was 31.6 µM. In the case of `CC(C)CCC[C@@H](C)C1CCC2[C@@H]3CC=C4C[C@@H](OC(=O)CCC(=O)O)CC[C@]4(C)C3CC[C@@]21C` (stereo partly specified), the result was inactive. In the case of `CC1=NN(C(=O)CC(=O)Nc2cccc(Cl)c2)C(=O)C1N=Nc1ccc(S(N)(=O)=O)cc1` (stereo unspecified), the EC50 was > 55 µM and the half-inhibitory concentration (IC50) was > 55 µM. For `O=C1C2C3SC(c4c3ccc3ccccc43)C2C(=O)N1c1ccccc1` (stereo unspecified), the EC50 is > 2.95 µM and the concentration for half-maximal inhibition (IC50) is > 2.95 µM.

For `O=c1ccnc2c1ccc1[nH]cccc12`, the EC50 was > 1260 µM and the 50% inhibitory concentration (IC50) is 64.6 µM.

For the compound `O=C(NNC(=O)c1ccc([N+](=O)[O-])cc1)c1ccc([N+](=O)[O-])cc1`, the EC50 was > 200 µM and the IC50 was > 200 µM. Regarding `CCCCCCCCCCCCCCCC[NH][Ge]([NH]CCCCCCCCCCCCCCCC)([NH]CCCCCCCCCCCCCCCC)[NH]CCCCCCCCCCCCCCCC`, the EC50 is > 7.41 µM and the half-maximal inhibitory concentration (IC50) came out at 4.79 µM. As to `Nc1nn2cnnc2s1`, the outcome was inactive. For `CCN(CC)CC(C(=O)Nc1c(C)cccc1C)/C(C)=N/NC(N)=S` (stereo unspecified), the EC50 is > 37.2 µM and the concentration for half-maximal inhibition (IC50) is > 37.2 µM. As to `CC(=O)Nc1ccc(/C=C2\C(=O)NC(=S)N2/C=C(\C#N)c2ccc([N+](=O)[O-])cc2)cc1`, the EC50 was > 200 µM and the concentration for half-maximal inhibition (IC50) worked out at 72.4 µM. The corresponding values for `NC(=O)/C=C/c1c[nH]c2nccnc12` are > 191 µM and 0.977 µM. Turning to `COC(=O)Nc1cn2ccc(C(Cl)=C(Cl)Cl)cc2n1`, the EC50 was > 30.9 µM and the IC50 was found to be 0.0331 µM.

Turning to `ClC(Cl)(Cl)C1CCOC1n1nnc2ccccc21` (stereo unspecified), the outcome was inactive.

`O=C(OC1CCCCC1)c1cc(NC(=S)c2ccsc2)ccc1Cl`: the concentration giving a half-maximal response (EC50) was 0.141 µM and the half-inhibitory concentration (IC50) came out at 11.2 µM. Take `CC1=CC(C)(C)SC(SSSSC2=NC(C)=CC(C)(C)S2)=N1`: the EC50 was > 200 µM and the half-inhibitory concentration (IC50) worked out at 29.5 µM.

As for `O=C1c2ccccc2C(=O)c2c1ccc1c2[nH]c2ccccc21`, the result was inactive. On to `O=C(O)CCSCCCCCCCCCCCCSCCC(=O)O`, for which the EC50 was > 91.2 µM and the IC50 was > 91.2 µM. Turning to `O=C1c2ccccc2S[C@@H](O)[C@@H]2CCCN12`, the result was inactive. In the case of `CC1(C)OC2O[C@H](C3OC[C@H]4O[C@@H](n5ccc(=O)[nH]c5=O)C(O)[C@H]4N3O)[C@@H]3OC(C)(C)O[C@@H]3C2O1` (stereo partly specified), the EC50 was > 200 µM and the IC50 is 105 µM. The corresponding values for `Cc1nn[n-]n1.N.N.N.N.N.[Cl-].[Co+3]` are > 832 µM and > 832 µM. The corresponding values for `CCC(C)C(NC(=O)C(NC(=O)C(CC(N)=O)NC(=O)CN)C(C)O)C(=O)NC(C(=O)NC(C)C(=O)NC(C(=O)NC(CCC(=O)O)C(=O)NC(CC(C)C)C(=O)NC(CC(=O)O)C(=O)NC(C(=O)NC(Cc1ccc(O)cc1)C(=O)N1CCCC1C(=O)O)C(C)O)C(C)C)C(C)C` (stereo unspecified) (H-GNTIVAVELDTYP-OH; configuration not given here) are 30.9 µM and 50.1 µM. In the case of `COc1cc(-c2ccc(NC(=O)SCCC(=O)O)cc2OC)ccc1NC(=O)SCCC(=O)O`, the result was inactive. Consider `O=c1oc2c(O)c(O)cc3c(=O)oc4c(O)c(O)cc1c4c23`, for which the EC50 was > 66.1 µM and the IC50 is 42.7 µM. As for `O=C(OCc1ccccc1)N1CCNCCN(C(=O)OCc2ccccc2)CCNCC1`, the EC50 is > 200 µM and the IC50 is 87.1 µM.

Take `CCOC(=O)/C=C/c1ccc(C#N)cc1`: the result was inactive. For the compound `CC(C)(C)[Si](C)(C)OC1C(C/[N+]([O-])=N\Nc2ccc([N+](=O)[O-])cc2)OC(n2ccc(=O)[nH]c2=O)C1O[Si](C)(C)C(C)(C)C` (stereo unspecified), the EC50 was > 200 µM and the IC50 is 1.95 µM. For `OC(CBr)C(O)C(O)C(O)CBr` (stereo unspecified), the outcome was inactive. As to `CS(=O)(=O)OCCN(CCOS(C)(=O)=O)c1ccc(C=O)cc1`, the EC50 was > 200 µM and the IC50 came to 0.479 µM. The corresponding values for `O=C(c1cc2ccccc2[nH]1)C(O)(c1cc2ccccc2[nH]1)c1cc2ccccc2[nH]1` are > 9.33 µM and > 9.33 µM. The corresponding values for `CC1=Nc2c(C#N)ncn2N=C(C)C1` are > 200 µM and > 200 µM.

`COc1ccc(-n2sc3ncc([N+](=O)[O-])cc3c2=O)cc1`: the half-maximal effective concentration (EC50) was 9.33 µM and the IC50 is > 200 µM. As for `CC1(C)CC(=O)C2=C(C1)Nc1ccccc1NC2c1ccccc1` (stereo unspecified), the EC50 is > 200 µM and the IC50 was > 200 µM. Consider `COC(=O)c1ccc[c]([Sb](=[O])([OH])[OH])c1`, for which the EC50 was > 200 µM and the 50% inhibitory concentration (IC50) stood at 91.2 µM. The corresponding values for `CC(=O)OC1COC(Nn2c(=O)[nH]c3ccccc3c2=O)C(OC(C)=O)C1OC(C)=O` (stereo unspecified) are > 200 µM and > 200 µM. The corresponding values for `Cc1cccc(NC(=O)Nc2ccccc2)n1` are > 200 µM and 97.7 µM. The corresponding values for `CN1c2ccccc2C2=C(C3=C(CS2)C(=O)CCS3)S1(=O)=O` are > 38.9 µM and > 38.9 µM.

In turn, `C[C@@H](NC(=O)c1ccccc1SC(=O)NCCCCl)C(N)=O` showed an EC50 of 3.39 µM and an IC50 of 49 µM. The corresponding values for `COc1ccc(-c2cc(NC(=O)c3ccccc3)c(=O)oc2C)cc1` are > 200 µM and > 200 µM. Consider `CC1(C(=O)O)CCCC2(C)[C@@H]3CCC4CC3(CC[C@H]12)C[C@@]4(C)O` (stereo partly specified), for which the EC50 was > 200 µM and the IC50 was > 200 µM.

Regarding `O=C(O)c1c([N+](=O)[O-])cc(C(F)(F)F)cc1[N+](=O)[O-]`, the outcome was inactive.

`CC(=O)OC(OC(C)=O)c1ccc2ccc3cccc4ccc1c2c34`: the EC50 was > 200 µM and the IC50 amounted to 34.7 µM. In the case of `CCCCCCCCCCCCN1[C@H]2CCC[C@H]2C(O)[C@@H]2CCC[C@@H]21` (stereo partly specified), the EC50 is > 200 µM and the half-maximal inhibitory concentration (IC50) amounted to 4.9 µM. The corresponding values for `O=C1C=C(Nc2ccccc2C(=O)CC(=O)C(=O)Nc2cccc([N+](=O)[O-])c2)c2ccccc2C1=O` are > 20.9 µM and 15.5 µM. As to `N#Cc1cc([N+](=O)[O-])ccc1NC(=O)C(=O)Nn1c(=S)[nH]c2ccccc2c1=O`, the outcome was inactive. Regarding `O=[N+]([O-])O[C@H]1CO[C@H]2[C@@H]1OC[C@H]2O[N+](=O)[O-]`, the EC50 was > 200 µM and the half-inhibitory concentration (IC50) is > 200 µM.

For `Oc1ccccc1-c1nnc2sc3c(Cl)c4nn5c(-c6ccccc6O)nnc5sc4c(Cl)c3nn12`, the EC50 was > 200 µM and the IC50 worked out at 36.3 µM. The corresponding values for `CCCCN1CCC(O)(c2cc(C(=O)O)[nH]c2-c2cc(C)no2)C1=O` (stereo unspecified) are > 200 µM and 70.8 µM.

On to `Clc1ccc(C[P+](c2ccccc2)(c2ccccc2)c2ccccc2)c(Cl)c1`, for which the EC50 was > 200 µM and the IC50 came out at 1.48 µM.

Take `[Cl][Bi]([Cl])([c]1ccccc1)([c]1ccccc1)[c]1ccccc1`: the EC50 was > 19.5 µM and the half-inhibitory concentration (IC50) came out at 3.39 µM. The corresponding values for `CCSCCCCCCCCCCC(=O)O` are > 200 µM and 63.1 µM.

As to `COC(=O)c1ccccc1C1CN=NC12Cc1c(C)cccc1C2=O` (stereo unspecified), the EC50 is > 200 µM and the half-inhibitory concentration (IC50) was 151 µM.

For `Cc1ccc2c3nc4ccccc4c-3csc2c1`, the EC50 is 0.17 µM and the IC50 was 0.363 µM. For the compound `COC(=O)C1=C(OC)C(C(=O)OC)C23CCCC12C(C(=O)OC)C(OC)C3C(=O)OC` (stereo unspecified), the EC50 is > 135 µM and the IC50 was > 135 µM. `Cc1ccccc1OCC1COC(c2ccc(Cl)cc2)O1` (stereo unspecified): the EC50 is > 200 µM and the half-inhibitory concentration (IC50) is > 200 µM. Consider `FC(F)(F)c1cccnc1Sc1nc2ccccc2s1`, for which the EC50 was > 200 µM and the half-inhibitory concentration (IC50) was 38 µM.

For `C[n+]1c(-c2ccc(/C=N\NC(=O)c3ccc(C(=O)N/N=C/c4ccc(-c5cn6ccsc6[n+]5C)cc4)cc3)cc2)cn2ccsc21`, the EC50 is > 50.1 µM and the IC50 is 0.501 µM. For the compound `COc1ccc(/C=C(\C#N)c2nc3ccccc3c(=O)[nH]2)cc1`, the result was active.

With `O=C(c1ccc(Cl)cc1)c1c(O)c2ccccc2oc1=O`, the EC50 was > 200 µM and the half-inhibitory concentration (IC50) is > 200 µM. Turning to `CCN(CC)CCC(=O)N1C/C(=C/c2ccccc2)C(=O)/C(=C\c2ccccc2)C1`, the EC50 was > 200 µM and the IC50 was found to be 0.407 µM. The corresponding values for `C1CCC(N=C2N(C3CCCCC3)C(=NC3CCCCC3)N2C2CCCCC2)CC1` are > 9.12 µM and > 9.12 µM.

As for `CC(=O)NCCCCCCNC(C)=O`, the EC50 is > 1260 µM and the concentration for half-maximal inhibition (IC50) was > 1260 µM.

Consider `CC1=N/C(=C\c2ccc(N(C)C)cc2)C(=O)O1`, for which the EC50 is > 81.3 µM and the IC50 was > 81.3 µM. Turning to `Cn1c(N)c(C(N)=O)[nH]c1=S`, the EC50 is > 200 µM and the IC50 is > 200 µM. With `Cc1cc(-c2[nH]c(C(=O)O)cc2I)on1`, the EC50 is > 200 µM and the IC50 is > 200 µM.

As for `O=C(CSc1nnc(-c2ccc(N=Cc3ccc(Cl)cc3)cc2)o1)Nc1cccc([N+](=O)[O-])c1`, the EC50 was > 5.5 µM and the 50% inhibitory concentration (IC50) was determined as 2.24 µM. With `COC1/C=C/OC2(C)Oc3c(C)c(OC(C)=O)c4c(c3C2=O)C(=O)C=C(NC(=O)/C(C)=C\C=C\C(C)C(O)C(C)C(O)C(C)C(OC(C)=O)C1C)C4=O` (stereo unspecified), the EC50 is > 200 µM and the half-maximal inhibitory concentration (IC50) worked out at 5.89 µM.

As for `Cc1nc(Nc2ccc(Cl)cc2)sc1C(=O)NNC(=O)C(=O)NN`, the EC50 was > 19.5 µM and the half-maximal inhibitory concentration (IC50) is > 19.5 µM. In the case of `CCCn1c(=O)c2ccccc2[n+]2c(-c3ccc([N+](=O)[O-])cc3)csc12`, the EC50 was > 200 µM and the IC50 is > 100 µM.
